From the supplement of paper PMC12076712

Columns and labels:
Test in all cases: pIC50, kinobeads binding competition
Conditions in all cases: cell material: Jurkat lysate
[1] = target: T1, UniProt P45985
T1 sequence (whole entry): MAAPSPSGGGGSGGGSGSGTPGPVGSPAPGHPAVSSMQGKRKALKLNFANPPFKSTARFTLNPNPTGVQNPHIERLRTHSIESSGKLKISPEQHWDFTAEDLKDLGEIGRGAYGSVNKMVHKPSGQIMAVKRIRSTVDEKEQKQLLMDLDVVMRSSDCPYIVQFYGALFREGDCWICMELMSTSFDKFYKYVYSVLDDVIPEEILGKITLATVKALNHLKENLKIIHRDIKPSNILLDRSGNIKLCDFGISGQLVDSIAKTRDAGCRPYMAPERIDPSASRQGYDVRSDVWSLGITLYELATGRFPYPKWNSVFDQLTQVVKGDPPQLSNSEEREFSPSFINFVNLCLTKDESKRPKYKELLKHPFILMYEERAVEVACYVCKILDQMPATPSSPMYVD

[2] = target: T2, UniProt O14920
T2 sequence (whole entry): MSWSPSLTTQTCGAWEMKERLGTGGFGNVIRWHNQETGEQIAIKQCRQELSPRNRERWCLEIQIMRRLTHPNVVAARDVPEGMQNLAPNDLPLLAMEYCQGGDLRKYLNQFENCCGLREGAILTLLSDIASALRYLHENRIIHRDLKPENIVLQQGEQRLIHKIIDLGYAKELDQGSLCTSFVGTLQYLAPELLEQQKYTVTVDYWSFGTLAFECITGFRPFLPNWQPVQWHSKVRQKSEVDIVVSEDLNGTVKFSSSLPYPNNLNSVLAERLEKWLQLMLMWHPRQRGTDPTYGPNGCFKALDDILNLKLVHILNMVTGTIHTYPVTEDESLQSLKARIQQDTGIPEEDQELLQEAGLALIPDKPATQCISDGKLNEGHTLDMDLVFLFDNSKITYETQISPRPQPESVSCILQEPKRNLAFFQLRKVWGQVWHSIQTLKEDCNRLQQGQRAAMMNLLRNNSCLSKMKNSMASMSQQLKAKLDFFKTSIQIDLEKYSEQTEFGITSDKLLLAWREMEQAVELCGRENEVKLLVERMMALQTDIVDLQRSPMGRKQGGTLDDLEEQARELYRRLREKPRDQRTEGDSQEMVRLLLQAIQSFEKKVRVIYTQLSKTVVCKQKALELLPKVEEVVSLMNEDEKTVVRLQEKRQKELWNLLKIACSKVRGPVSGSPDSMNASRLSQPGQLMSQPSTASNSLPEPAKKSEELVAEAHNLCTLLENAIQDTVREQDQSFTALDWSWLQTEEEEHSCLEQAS

[3] = target: T3, UniProt O00444
T3 sequence (whole entry): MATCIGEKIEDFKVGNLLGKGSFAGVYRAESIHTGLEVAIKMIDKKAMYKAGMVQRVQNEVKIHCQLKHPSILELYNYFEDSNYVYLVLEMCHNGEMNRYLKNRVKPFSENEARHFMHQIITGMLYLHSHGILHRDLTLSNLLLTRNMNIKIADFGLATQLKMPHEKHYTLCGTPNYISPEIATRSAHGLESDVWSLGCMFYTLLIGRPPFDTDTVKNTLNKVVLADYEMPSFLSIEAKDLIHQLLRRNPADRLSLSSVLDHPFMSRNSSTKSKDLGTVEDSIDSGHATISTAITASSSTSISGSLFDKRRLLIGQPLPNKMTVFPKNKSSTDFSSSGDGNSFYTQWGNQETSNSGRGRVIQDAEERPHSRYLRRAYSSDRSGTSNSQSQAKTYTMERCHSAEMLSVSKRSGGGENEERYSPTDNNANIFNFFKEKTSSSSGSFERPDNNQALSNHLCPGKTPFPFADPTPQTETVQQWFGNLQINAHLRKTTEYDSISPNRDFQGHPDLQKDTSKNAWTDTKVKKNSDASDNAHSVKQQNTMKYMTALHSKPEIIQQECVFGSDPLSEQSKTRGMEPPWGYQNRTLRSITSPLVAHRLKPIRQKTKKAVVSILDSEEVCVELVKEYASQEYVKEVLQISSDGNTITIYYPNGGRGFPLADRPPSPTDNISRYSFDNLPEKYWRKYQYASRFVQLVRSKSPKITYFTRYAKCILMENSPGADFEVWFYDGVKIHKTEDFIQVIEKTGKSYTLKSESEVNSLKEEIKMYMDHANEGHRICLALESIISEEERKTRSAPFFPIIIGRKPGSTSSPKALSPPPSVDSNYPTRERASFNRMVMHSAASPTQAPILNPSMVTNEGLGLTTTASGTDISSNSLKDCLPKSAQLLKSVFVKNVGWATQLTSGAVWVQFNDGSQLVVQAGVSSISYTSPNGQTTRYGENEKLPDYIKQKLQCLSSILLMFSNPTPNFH

[4] = target: T4, DYRK2 (UniProt Q92630)
T4 sequence (whole entry): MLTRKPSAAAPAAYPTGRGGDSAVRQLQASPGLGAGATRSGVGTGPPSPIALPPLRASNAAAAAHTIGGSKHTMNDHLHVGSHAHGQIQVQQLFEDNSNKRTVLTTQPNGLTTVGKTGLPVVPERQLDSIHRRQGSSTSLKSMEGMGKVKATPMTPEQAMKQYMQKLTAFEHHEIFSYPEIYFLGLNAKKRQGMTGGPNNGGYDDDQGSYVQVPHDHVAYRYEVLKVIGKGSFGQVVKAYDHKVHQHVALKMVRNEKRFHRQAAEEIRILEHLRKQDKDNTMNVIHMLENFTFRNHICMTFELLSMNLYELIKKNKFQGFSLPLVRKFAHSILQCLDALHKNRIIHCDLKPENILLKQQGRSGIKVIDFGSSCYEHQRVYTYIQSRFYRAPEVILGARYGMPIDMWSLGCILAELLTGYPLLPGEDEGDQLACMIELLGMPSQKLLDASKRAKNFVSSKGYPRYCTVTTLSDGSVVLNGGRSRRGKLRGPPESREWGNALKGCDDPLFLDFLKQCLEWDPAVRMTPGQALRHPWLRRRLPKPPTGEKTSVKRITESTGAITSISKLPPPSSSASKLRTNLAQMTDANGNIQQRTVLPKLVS

[5] = target: UniProt Q9P289
UniProt Q9P289, sequence (Q9P289 whole entry, looked up): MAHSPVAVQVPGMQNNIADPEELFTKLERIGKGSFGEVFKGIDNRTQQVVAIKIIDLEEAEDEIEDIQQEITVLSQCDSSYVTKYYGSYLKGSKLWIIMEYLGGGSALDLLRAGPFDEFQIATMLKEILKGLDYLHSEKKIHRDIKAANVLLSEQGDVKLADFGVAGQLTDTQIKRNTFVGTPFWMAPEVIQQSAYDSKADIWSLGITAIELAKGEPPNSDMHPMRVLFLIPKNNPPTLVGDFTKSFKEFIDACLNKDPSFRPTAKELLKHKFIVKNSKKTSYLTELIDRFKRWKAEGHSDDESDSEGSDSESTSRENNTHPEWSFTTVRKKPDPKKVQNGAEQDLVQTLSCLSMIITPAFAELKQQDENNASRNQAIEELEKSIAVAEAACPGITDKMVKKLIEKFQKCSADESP

[6] = target: AKT1 (UniProt P31749)
AKT1, sequence (P31749 whole entry): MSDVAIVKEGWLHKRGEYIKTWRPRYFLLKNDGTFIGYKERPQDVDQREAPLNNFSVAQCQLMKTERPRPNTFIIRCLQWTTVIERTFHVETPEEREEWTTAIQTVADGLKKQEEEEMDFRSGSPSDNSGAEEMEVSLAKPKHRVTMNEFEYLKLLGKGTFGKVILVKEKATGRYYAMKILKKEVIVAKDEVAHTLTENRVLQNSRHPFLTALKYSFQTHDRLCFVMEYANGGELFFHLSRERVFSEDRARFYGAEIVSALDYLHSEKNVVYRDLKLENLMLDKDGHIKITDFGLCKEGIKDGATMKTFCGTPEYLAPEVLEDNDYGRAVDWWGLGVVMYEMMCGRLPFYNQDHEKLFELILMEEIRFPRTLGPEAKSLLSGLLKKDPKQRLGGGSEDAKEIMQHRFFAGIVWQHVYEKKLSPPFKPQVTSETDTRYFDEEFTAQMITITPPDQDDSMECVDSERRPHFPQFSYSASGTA

[7] = target: BUB1 (UniProt O43683)
[8] = target: TRRAP (UniProt Q9Y4A5)
TRRAP, sequence (Q9Y4A5 whole entry): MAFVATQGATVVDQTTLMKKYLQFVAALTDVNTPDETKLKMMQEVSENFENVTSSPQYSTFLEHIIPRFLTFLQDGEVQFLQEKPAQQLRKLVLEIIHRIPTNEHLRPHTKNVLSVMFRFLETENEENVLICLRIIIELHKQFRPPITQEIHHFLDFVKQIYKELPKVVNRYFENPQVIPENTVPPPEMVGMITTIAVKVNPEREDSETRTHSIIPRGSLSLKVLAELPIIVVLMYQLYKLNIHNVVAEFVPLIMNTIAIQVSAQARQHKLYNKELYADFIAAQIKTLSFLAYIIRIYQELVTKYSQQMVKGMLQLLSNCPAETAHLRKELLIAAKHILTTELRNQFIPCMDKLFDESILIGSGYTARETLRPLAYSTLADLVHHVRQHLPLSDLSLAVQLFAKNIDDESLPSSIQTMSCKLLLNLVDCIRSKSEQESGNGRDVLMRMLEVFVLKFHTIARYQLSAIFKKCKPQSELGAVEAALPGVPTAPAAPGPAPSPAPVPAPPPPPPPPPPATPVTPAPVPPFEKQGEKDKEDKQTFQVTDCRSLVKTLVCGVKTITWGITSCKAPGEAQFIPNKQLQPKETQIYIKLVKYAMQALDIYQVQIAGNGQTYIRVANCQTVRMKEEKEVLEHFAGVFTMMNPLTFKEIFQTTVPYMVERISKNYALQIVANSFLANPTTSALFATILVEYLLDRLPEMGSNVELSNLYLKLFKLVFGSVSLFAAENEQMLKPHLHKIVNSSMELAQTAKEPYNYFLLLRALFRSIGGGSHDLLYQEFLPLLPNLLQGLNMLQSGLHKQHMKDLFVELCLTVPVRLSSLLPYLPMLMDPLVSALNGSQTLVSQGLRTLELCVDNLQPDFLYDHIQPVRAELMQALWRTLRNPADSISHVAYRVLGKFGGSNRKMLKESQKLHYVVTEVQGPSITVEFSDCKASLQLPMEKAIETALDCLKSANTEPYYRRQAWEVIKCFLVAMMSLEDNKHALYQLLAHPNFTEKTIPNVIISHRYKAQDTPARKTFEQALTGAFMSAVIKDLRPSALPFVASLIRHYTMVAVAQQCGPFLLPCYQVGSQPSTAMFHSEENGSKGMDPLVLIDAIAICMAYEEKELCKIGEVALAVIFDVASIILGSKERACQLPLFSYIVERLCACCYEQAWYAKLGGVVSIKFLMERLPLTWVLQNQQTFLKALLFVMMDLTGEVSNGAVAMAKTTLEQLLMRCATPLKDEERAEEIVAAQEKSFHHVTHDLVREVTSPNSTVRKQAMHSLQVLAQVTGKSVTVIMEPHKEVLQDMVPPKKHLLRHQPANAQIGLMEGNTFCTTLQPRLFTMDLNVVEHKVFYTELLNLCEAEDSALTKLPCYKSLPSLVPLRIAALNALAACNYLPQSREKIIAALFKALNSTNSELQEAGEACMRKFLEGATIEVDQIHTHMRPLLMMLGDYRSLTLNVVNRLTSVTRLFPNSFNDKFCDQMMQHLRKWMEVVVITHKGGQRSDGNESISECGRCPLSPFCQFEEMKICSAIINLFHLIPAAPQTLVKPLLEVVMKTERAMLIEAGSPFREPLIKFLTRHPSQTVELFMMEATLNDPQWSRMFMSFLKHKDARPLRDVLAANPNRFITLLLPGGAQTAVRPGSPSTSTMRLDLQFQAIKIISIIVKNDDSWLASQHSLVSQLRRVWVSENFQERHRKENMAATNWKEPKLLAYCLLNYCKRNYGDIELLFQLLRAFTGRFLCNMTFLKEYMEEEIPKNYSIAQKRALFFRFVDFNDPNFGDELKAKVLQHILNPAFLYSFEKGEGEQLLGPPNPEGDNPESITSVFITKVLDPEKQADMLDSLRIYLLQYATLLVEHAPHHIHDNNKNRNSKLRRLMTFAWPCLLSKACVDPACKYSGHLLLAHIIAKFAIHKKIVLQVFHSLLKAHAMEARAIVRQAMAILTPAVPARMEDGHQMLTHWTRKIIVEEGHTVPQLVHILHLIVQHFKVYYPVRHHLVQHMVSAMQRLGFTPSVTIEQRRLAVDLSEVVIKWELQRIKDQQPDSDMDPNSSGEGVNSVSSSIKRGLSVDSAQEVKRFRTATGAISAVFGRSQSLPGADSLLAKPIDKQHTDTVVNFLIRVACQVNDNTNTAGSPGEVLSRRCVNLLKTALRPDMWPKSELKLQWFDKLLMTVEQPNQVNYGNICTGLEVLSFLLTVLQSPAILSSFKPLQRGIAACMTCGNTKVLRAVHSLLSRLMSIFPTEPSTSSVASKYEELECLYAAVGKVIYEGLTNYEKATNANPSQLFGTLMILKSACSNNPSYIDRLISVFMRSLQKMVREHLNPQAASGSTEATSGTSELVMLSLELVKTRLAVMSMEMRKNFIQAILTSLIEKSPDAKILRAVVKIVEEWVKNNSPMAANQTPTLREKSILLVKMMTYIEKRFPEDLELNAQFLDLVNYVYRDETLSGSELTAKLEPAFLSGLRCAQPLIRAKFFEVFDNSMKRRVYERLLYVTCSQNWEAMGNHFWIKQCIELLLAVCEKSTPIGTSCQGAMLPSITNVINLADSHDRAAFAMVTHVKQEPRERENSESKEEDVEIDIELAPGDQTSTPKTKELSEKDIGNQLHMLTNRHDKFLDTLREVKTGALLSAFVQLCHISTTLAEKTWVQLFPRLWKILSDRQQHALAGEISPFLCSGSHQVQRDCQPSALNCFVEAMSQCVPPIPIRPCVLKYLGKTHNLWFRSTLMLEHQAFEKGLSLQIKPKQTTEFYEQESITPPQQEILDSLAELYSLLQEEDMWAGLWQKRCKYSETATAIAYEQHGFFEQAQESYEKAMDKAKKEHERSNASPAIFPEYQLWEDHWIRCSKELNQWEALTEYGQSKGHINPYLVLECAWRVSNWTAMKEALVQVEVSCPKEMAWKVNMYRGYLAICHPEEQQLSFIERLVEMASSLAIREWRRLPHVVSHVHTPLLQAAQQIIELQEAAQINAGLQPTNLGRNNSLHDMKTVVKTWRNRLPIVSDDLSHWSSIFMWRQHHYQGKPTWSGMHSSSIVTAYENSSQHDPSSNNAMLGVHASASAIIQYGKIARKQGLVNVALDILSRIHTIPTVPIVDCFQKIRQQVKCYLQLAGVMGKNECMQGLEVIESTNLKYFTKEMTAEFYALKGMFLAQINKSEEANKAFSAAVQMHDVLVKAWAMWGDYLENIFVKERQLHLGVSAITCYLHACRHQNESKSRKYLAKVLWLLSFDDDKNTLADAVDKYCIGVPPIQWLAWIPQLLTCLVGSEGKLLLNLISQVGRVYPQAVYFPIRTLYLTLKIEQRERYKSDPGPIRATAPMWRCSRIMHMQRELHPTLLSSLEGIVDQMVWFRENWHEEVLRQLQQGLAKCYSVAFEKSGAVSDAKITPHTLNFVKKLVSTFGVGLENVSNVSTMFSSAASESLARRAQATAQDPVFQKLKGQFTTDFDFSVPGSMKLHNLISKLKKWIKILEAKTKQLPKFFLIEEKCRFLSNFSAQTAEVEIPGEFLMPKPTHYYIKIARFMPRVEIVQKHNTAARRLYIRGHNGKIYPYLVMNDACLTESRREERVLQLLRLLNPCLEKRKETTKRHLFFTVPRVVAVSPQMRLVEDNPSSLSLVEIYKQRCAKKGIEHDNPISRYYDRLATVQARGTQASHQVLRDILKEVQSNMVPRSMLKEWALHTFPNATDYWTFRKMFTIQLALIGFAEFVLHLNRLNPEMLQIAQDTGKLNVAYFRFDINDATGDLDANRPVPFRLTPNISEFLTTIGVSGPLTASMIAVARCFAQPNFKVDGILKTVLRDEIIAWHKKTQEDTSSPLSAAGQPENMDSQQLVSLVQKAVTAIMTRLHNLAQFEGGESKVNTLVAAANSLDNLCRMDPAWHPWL

Measured: pIC50

CCc1cnn2c(NCc3ccc[n+]([O-])c3)cc(N3CCCC[C@H]3CCO)nc12 [dinaciclib]
< 4.52: all assays above
